Measurements reported in patent US20070191324A1, “Methods for treatment or prophylaxis of aldosterone-mediated pathogenic effects in a subject using an epoxy-steroidal aldosterone antagonist” (priority 1999, published 2007).
Like-named read-outs stand apart in the source and are kept apart here.

Tests used:
[1] = test system: aortas of cholesterol-fed rabbits; experiment: Endothelial function in diet induced atherosclerosis, aortic isometric tension and superoxide (Example A-10); format: in vivo, New Zealand white rabbits; conditions: 50 mg/kg twice daily by gavage, 6 weeks
Procedure: Methods: New Zealand white rabbits were randomized to four treatment groups. 32 Rabbits were placed on normal (NC) or 1% cholesterol chow (HC) for a duration of 8 weeks. […] Rabbits were euthanized at the end of 8 weeks and the aortas extracted for isometric tension studies and estimation of superoxide (O2^−) generation in vessel segments by lucigenin chemiluminescence (250 μM). Vessels were preconstricted with phenylephrine ([…]) to approximately 50% of peak constriction and dose responses to acetylcholine (Ach) and nitroglycerin (NTG) tested.

[2] = test system: saline-loaded adrenalectomized rats treated with aldosterone; experiment: Antimineralocorticoid activity in saline-loaded adrenalectomized rats treated with aldosterone (Example A-2); format: in vivo
Procedure: Methods: The antimineralocorticoid pharmacological activity was determined in saline-loaded adrenalectomized rats treated with aldosterone. […] Urinary sodium, potassium and water excretion were measured.

[3] = test system: patients with low-renin hypertension; experiment: Eplerenone versus losartan in low-renin hypertension, 16 weeks (Examples A-16, D-5); format: in vivo, human
From the text: Patients will continue on therapy until Week 16. Table […] illustrates the above-described dosing scheme. […] Plasma renin will be determined at screening; serum aldosterone, plasma renin, and plasma cortisol will be determined at Weeks 0, 8, and 16. […] A 12-lead electrocardiogram will be done at Weeks 0 and 16. Physical examinations will be completed at screening and at Week 16. […] Secondary measures of efficacy will be the following: […] Study design is illustrated in FIG. D-16. […] At Weeks 8 and 16, BP, RAAS hormone profile, and safety were assessed.

[4] = test system: patients with stage I-III hypertension; experiment: Fixed-dose eplerenone vs placebo, clinic and ambulatory BP, 12 weeks (Example D-13); format: in vivo, human
From the text: Patients were reassessed using clinic and ambulatory BP at the end of 12 weeks of therapy.

[5] = test system: black and white patients with mild-to-moderate hypertension; conditions: for Active Renin (% change) / ΔDBP / ΔSBP: baseline to Week 16
[6] = Pharmacokinetics and absorption of [14C]eplerenone in the rat (Example A-9); format: in vivo; conditions: for Cmax: rat, oral 15 mg/kg
Procedure: Plasma, urine and fecal samples were analyzed for total radioactivity.

[7] = test system: patients uncontrolled with BB or CCB monotherapy; experiment: Eplerenone co-administration with CCB or beta-blocker, 8 weeks (Example D-10); format: in vivo, human; conditions: for Diastolic Blood Pressure Responder Rates, Percentage of Patients Responding: seDBP <90 mmHg or ≧10 mmHg reduction
Procedure: This was a multicenter, double-blind, randomized, placebo-controlled, placebo run-in, parallel-group study. […] The dose was to be increased only once during the study. […] Study assessments at protocol-specified timepoints included BP, heart rate, clinical laboratory analyses, ECG, and concomitant medications. Throughout the study, safety was assessed by routine clinical laboratory analyses, vital signs, physical examinations, 12-lead ECG, and monitoring of adverse events. […] The study was designed to include 60 randomized patients in each group and each cohort.

hypertensive patients = experiment: Eplerenone vs. amlodipine, ambulatory blood pressure monitoring, 16 weeks (Example D-12); format: in vivo, human
From the text: This was a multicenter, randomized, double-blind, active-controlled, placebo run-in, parallel group study. […] If symptomatic hypotension occurred at Week 2 or Weeks 4, 6, 8, or 12 and the patient was on the lowest dose level (Dose Level 1), the patient was to be withdrawn. Study assessments at protocol-specified timepoints included BP, heart rate, ABPM, Holter recording, clinical laboratory analyses including serum potassium levels, concomitant medications. Throughout the study, safety was assessed by routine clinical laboratory analyses, vital signs, physical examinations, 12-lead ECG, and monitoring of adverse events.

[8] = test system: patients with mild-to-moderate hypertension; experiment: Eplerenone versus enalapril in essential hypertension, 12-month titration-to-effect (Example D-3); format: in vivo, human
Procedure: The study design is illustrated in FIG. D-6. Patients with mild-to-moderate hypertension (diastolic blood pressure [DBP]≧95 mmHg and <110 mmHg) were randomized to receive initially EPL 50 mg QD (n=253) or ENAL 10 mg QD (n=246). If DBP ≧90 mmHg at Weeks 4, 8, 12, 16, or 20, the dose of study medication was up-titrated incrementally to EPL 100 mg and 200 mg QD, or ENAL 20 mg and 40 mg QD. […] At 24 wks and 12 months, changes in BP, RAAS hormone profile, urinary albumin excretion (urinary albumin: creatinine ratio [UACR]), laboratory tests, safety, and adverse events (AEs) were assessed.

[9] = Week 8 (monotherapy), EPL 100-200 mg QD, LOS 50-100 mg QD
[10] = Week 16, after allowed addition of HCTZ
[11] = eplerenone 50-100 mg QD, 8 weeks
[12] = Week 24, EPL 50-200 mg QD, ENAL 10-40 mg QD titrated

COC(=O)[C@@H]1CC2=CC(=O)CC[C@]2(C)[C@@]23O[C@@H]2C[C@@]2(C)[C@@H](CC[C@@]24CCC(=O)O4)[C@H]13 [Eplerenone, Pregn-4-ene-7,21-dicarboxylic acid, 9,11-epoxy-17-hydroxy-3-oxo-, γ-lactone, methyl ester, (7α, 11α, 17β)-]
ED50 Ach ([1]; 1% cholesterol chow): 68 nM
ED50 NTG ([1]; 1% cholesterol chow): 10 nM
ED50 Ach ([1]; normal chow): 32 nM
ED50 NTG ([1]; normal chow): 5.7 nM
Urinary Na/K ± SEM ([2]; aldosterone & antagonist 1 mg/kg by gavage): 2.53 ± 0.23
Urinary Na/K ± SEM ([2]; aldosterone & antagonist 3 mg/kg by gavage): 4.08 ± 0.26
Urinary Na/K ± SEM ([2]; aldosterone & antagonist 10 mg/kg by gavage): 4.11 ± 0.27
cumulative percentage of patients requiring HCTZ add-on therapy ([3]; 16 weeks): 32.5%
increase in active renin levels ([3]; Week 8): +50.1%
increase in serum aldosterone levels ([3]; Week 8): +74.7%
mean change from baseline in DBP [3, 9]: −9.3 mmHg
mean change from baseline in SBP [3, 9]: −15.8 mmHg
increase in active renin levels ([3]; Week 16): +73.0%
increase in serum aldosterone levels ([3]; Week 16): +89.8%
mean change from baseline in DBP [3, 10]: −10.8 mmHg
mean change from baseline in SBP [3, 10]: −18.3 mmHg
safety and tolerability ([3]; in vivo): safe and well tolerated
Δ Ambulatory BP, diastolic ([4]; 25 mg QD): −4.4 mmHg
Δ Ambulatory BP, systolic ([4]; 25 mg QD): −6.4 mmHg
Δ Clinic BP, diastolic ([4]; 25 mg QD): −3.7 mmHg
Δ Clinic BP, systolic ([4]; 25 mg QD): −5.7 mmHg
Δ Ambulatory BP, diastolic ([4]; 50 mg QD): −4.1 mmHg
Δ Ambulatory BP, systolic ([4]; 50 mg QD): −6.8 mmHg
Δ Clinic BP, diastolic ([4]; 50 mg QD): −4.6 mmHg
Δ Clinic BP, systolic ([4]; 50 mg QD): −6.7 mmHg
Δ Ambulatory BP, diastolic ([4]; 100 mg QD): −5.5 mmHg
Δ Ambulatory BP, systolic ([4]; 100 mg QD): −9.1 mmHg
Δ Clinic BP, diastolic ([4]; 100 mg QD): −6.3 mmHg
Δ Clinic BP, systolic ([4]; 100 mg QD): −10.4 mmHg
Δ Ambulatory BP, diastolic ([4]; 200 mg QD): −5.7 mmHg
Δ Ambulatory BP, systolic ([4]; 200 mg QD): −10.3 mmHg
Δ Clinic BP, diastolic ([4]; 200 mg QD): −5.4 mmHg
Δ Clinic BP, systolic ([4]; 200 mg QD): −8.8 mmHg
gynecomastia, menstrual abnormalities, breast pain ([4]; 25-200 mg QD): no reports of gynecomastia, menstrual abnormalities, or breast pain
treatment of mild-to-moderate hypertension in black hypertensive patients ([5]; 16 weeks): superior to losartan
Active Renin (% change) ([5]; All Patients): +45.6%
ΔDBP ([5]; All Patients): −10.3 mmHg
ΔSBP ([5]; All Patients): −12.8 mmHg
Active Renin (% change) ([5]; Black Patients): +39.3%
ΔDBP ([5]; Black Patients): −10.2 mmHg
ΔSBP ([5]; Black Patients): −13.5 mmHg
adjusted mean percent change from baseline in UACR ([5]; Week 16, EPL 50-200 mg QD, LOS 50-100 mg QD): −21.6%
Active Renin (% change) ([5]; White Patients): +57.1%
ΔDBP ([5]; White Patients): −11.1 mmHg
ΔSBP ([5]; White Patients): −12.3 mmHg
safety and tolerability ([5]; human, in vivo): safe and well-tolerated
time of peak plasma concentration of total radioactivity ([6]; oral aqueous solution 15 mg/kg, male rat): 1.1 h
clearance ([6]; plasma, IV 15 mg/kg, male rat): 20.3 mL/min/kg
half-life ([6]; plasma, IV 15 mg/kg, male rat): 48.2 min
Cmax ([6]; plasma, female rats): 3540 ng/mL
Cmax ([6]; plasma, male rats): 1710 ng/mL
Diastolic Blood Pressure Responder Rates, Percentage of Patients Responding ([7]; BB Cohort, Week 2): 48 (69.6%)
Diastolic Blood Pressure Responder Rates, Percentage of Patients Responding ([7]; BB Cohort, Week 4): 53 (76.8%)
Diastolic Blood Pressure Responder Rates, Percentage of Patients Responding ([7]; BB Cohort, Week 6): 56 (81.2%)
Diastolic Blood Pressure Responder Rates, Percentage of Patients Responding ([7]; BB Cohort, Week 8): 52 (75.4%)
Diastolic Blood Pressure Responder Rates, Percentage of Patients Responding ([7]; CCB Cohort, Week 2): 40 (60.6%)
Diastolic Blood Pressure Responder Rates, Percentage of Patients Responding ([7]; CCB Cohort, Week 4): 51 (76.1%)
Diastolic Blood Pressure Responder Rates, Percentage of Patients Responding ([7]; CCB Cohort, Week 6): 55 (82.1%)
Diastolic Blood Pressure Responder Rates, Percentage of Patients Responding ([7]; CCB Cohort, Week 8): 48 (71.6%)
safety and tolerability ([7]; add on anti-hypertensive agent): safe and well tolerated
responders (seDBP <90 mmHg or ≧10 mmHg reduction from Baseline), CCB cohort ([7]; each timepoint, vs placebo): more patients who received eplerenone responded to treatment
responders (seDBP <90 mmHg or ≧10 mmHg reduction from Baseline), BB cohort ([7]; each timepoint, vs placebo (p ≦0.011)): significantly greater proportions of patients who received eplerenone responded to treatment
DBP and SBP, addition to a BB [7, 11]: efficacious in reducing DBP and SBP
SBP, addition to a CCB [7, 11]: efficacious in reducing SBP
anti-hypertensive effect, mean 24 hour systolic ABPM (hypertensive patients; eplerenone 50-200 mg, amlodipine 2.5-10 mg, 16 weeks): comparable
safety and tolerability (hypertensive patients; in vivo): safe and well tolerated
patients experiencing coughing ([8]; 12-month study): 2.4%
patients experiencing hyperglycemia ([8]; 12-month study): 0.0%
patients experiencing urinary tract infections (UTI) ([8]; 12-month study): 0.4%
DBP change ([8]; 12 months): −13.3 mmHg
SBP change ([8]; 12 months): −16.5 mmHg
DBP change [8, 12]: −11.2 mmHg
SBP change [8, 12]: −14.5 mmHg
reduction in UACR ([8]; Week 24, patients with baseline UACR ≧30 mg/g): −61.5%
safety and tolerability ([8]; in vivo): safe and well tolerated
